Results from patent publication US9243254B2, “Method for transforming a bacterium belonging to the streptococcus genus by natural competence” (priority 2009, dated 2016).

Experiments:
Assay in all cases: Natural transformation in CDM upon addition of synthetic peptide
Type in all cases: cell-based, Streptococcus thermophilus
S. thermophilus CNRZ1066 = system: S. thermophilus CNRZ1066
Experimental: (§1) Similarly to the protocol used in example 4, strains LMD-9, LMG18311, CNRZ1066 and JIM8777 were pre-cultivated in M17-lactose medium. The cells of the precultures were harvested (5000 g, 9 minutes, 20° C.) and washed twice in CDM and then resuspended in CDM. The washed cells were diluted in fresh CDM medium to obtain an optical density of 0.05, and then incubated at 37° C. After 1.5 h of incubation, in one set of experiment, 1 μM of one of the tested synthetic peptides and 1 μg/mL of pGIUD0855ery DNA (in case of S. thermophilus strains), or 1 μg/ml of pG+host09 DNA (in case of S. salivarius strains) were added to the culture, whereas 1 μg/mL of DNA but no synthetic peptide was added to the second set of experiment. The cultures were grown during 6 hours and serial dilutions were plated on the surface of M17-lactose agar medium containing 2.5 μg/mL of erythromycin to measure transformation efficiency. Transformed S. thermophilus and S. salivarius cells are selected at 37° C. and 29° C., respectively.
(§2) Similarly to the protocol used in example 4, various S. thermophilus strains, including LMD-9, CNRZ1066 and LMG18311 used as controls, were pre-cultivated in M17-lactose medium. The cells of the precultures were harvested (5000 g, 9 minutes, 20° C.) and washed twice in CDM and then resuspended in CDM. The washed cells were diluted in fresh CDM medium to obtain an optical density of 0.05, and then incubated at 37° C. After 1.5 h of incubation, in one set of experiment, 1 μM of one of the tested synthetic peptides (LPYFAGCL) (SEQ ID NO: 85) and 1 μg/mL of pGIUD0855cat DNA were added to the culture, whereas 1 μg/mL of DNA but no synthetic peptide was added to the second set of experiment. Plasmid pGIUD0855cat is a pUC18-derivative containing a chloramphenicol resistance cassette flanked by 1-kb fragments corresponding to the upstream and downstream regions of stu0855. Upon transformation, it promotes the genetic replacement of stu0855 by P32-cat through homologous recombination (FIG. 7). The cultures were grown during 6 hours and serial dilutions were plated on the surface of M17-lactose agar medium containing 5 μg/mL of chloramphenicol to measure transformation efficiency. Transformed S. thermophilus cells were selected at 37° C.; when transformants were obtained, the transformation efficiency was calculated and is given in Table 9.
Day 2: • Centrifuge Day 1—culture (centrifugation parameters: 5000 g, 9 minutes, 15° C.) and perform two washing steps with one volume (10 mL) of CDM (centrifugation parameters: 5000 g, 9 minutes, 15° C.). • Dilute the culture in 10 mL CDM to obtain an OD600nm of 0.05. • A small volume of S. thermophilus cultures (300 μL) is then transferred in white microplate with a transparent bottom (655095; Greiner, Alphen aid Rijn, The Netherlands) and is grown at 37° C. Luminescence at 595 nm and optical density at 600 nm are recorded with the automatic Synergy HT multi-mode microplate reader. The luciferase activity catalysed by LuxAB requires the presence of nonanal as substrate. In this experimental set-up, nonanal (Acros Organics ref. 204-688-5) is supplied to the cultures by placing 50 μL of a solution containing 1% nonanal diluted in mineral oil in the spaces between the wells of a covered microplate (11). […] The luminescence and absorbance are scanned every 10 minutes during 6 hours. • To perform a competence experiment, 1 μg of donor DNA is added in the 300 μL samples in the beginning of incubation. […]

S. thermophilus LMD-9 = system: S. thermophilus LMD-9
Experimental: as §1, §2
The overlapping PCR product was transferred through natural competence in strain LMD-9. Similarly to the protocol used in example 4, strain LMD-9 was pre-cultivated in M17-lactose medium. The cells of the precultures were harvested (5000 g, 9 minutes, 20° C.) and washed twice in CDM and then resuspended in CDM. The washed cells were diluted in fresh CDM medium to obtain an optical density of 0.05, and then incubated at 37° C. After 1.5 hour of incubation, 1 μM of LPYFAGCL (SEQ ID NO: 85) synthetic peptide and 1 μg/mL of the PCR product prepared above (joining the A, B and C fragments) were added to the culture. After the DNA uptake by the bacteria, the P32-cat cassette flanked by the two lox sites spontaneously replaces the his operon by double homologous recombination (FIG. 10). The transformation rate of the overlapping PCR was 1.1×10^−6 (160 Chloramphenicol-resistant CFU/mL). One isolate named CB15 was selected. […]

S. thermophilus DGCC7694 = conditions: 1 μM LPYFAGCL, 1 μg/mL pUC18_stu0855::P32cat
Experimental: as §2

S. thermophilus DGCC715 = conditions: 1 μM LPYFAGCL, 1 μg/mL pUC18_stu0855::P32cat
Experimental: as §2

S. thermophilus DGCC7809 = conditions: 1 μM LPYFAGCL, 1 μg/mL pUC18_stu0855::P32cat
Experimental: as §2

S. thermophilus DGCC782 = conditions: 1 μM LPYFAGCL, 1 μg/mL pUC18_stu0855::P32cat
Experimental: as §2

S. thermophilus DGCC3367 = conditions: 1 μM LPYFAGCL, 1 μg/mL pUC18_stu0855::P32cat
Experimental: as §2

S. thermophilus DGCC7710 = conditions: 1 μM LPYFAGCL, 1 μg/mL pUC18_stu0855::P32cat
Experimental: as §2

S. thermophilus DGCC7853 = conditions: 1 μM LPYFAGCL, 1 μg/mL pUC18_stu0855::P32cat
Experimental: as §2

S. thermophilus DGCC7785 = conditions: 1 μM LPYFAGCL, 1 μg/mL pUC18_stu0855::P32cat
Experimental: as §2

S. thermophilus DGCC7879 = conditions: 1 μM LPYFAGCL, 1 μg/mL pUC18_stu0855::P32cat
Experimental: as §2

[1] = 1 μM LPYFAGCL, 1 μg/mL pUC18_stu0855::P32cat, chloramphenicol selection
[2] = 1 μM PYFAGCL, 1 μg/mL pGIUD0855ery

## LPYFAGCL (fragment) [synthetic peptide corresponding to a C-terminal fragment of Shp316]
S. thermophilus CNRZ1066; [1]
  Transformation rate, With peptide addition: 3 × 10^−2
S. thermophilus LMD-9; 1 μM LPYFAGCL, 1 μg/mL overlapping PCR product
  Chloramphenicol-resistant CFU obtained with the overlapping PCR: 160 CFU/mL
S. thermophilus LMD-9; 1 μM LPYFAGCL, 1 μg/mL overlapping PCR product (his operon replacement by lox66-P32cat-lox71)
  Transformation rate of the overlapping PCR: 1.1×10^−6
S. thermophilus LMD-9; [1]
  Transformation rate, With peptide addition: 5.4 × 10^−3
S. thermophilus DGCC7694
  Transformation rate, With peptide addition: 3.9 × 10^−2
S. thermophilus DGCC715
  Transformation rate, With peptide addition: 1.2 × 10^−2
S. thermophilus DGCC7809
  Transformation rate, With peptide addition: 5.8 × 10^−4
S. thermophilus DGCC782
  Transformation rate, With peptide addition: 2 × 10^−3
S. thermophilus DGCC3367
  Transformation rate, With peptide addition: 1.8 × 10^−3
S. thermophilus DGCC7710
  Transformation rate, With peptide addition: 1 × 10^−2
S. thermophilus DGCC7853
  Transformation rate, With peptide addition: 4.9 × 10^−4
S. thermophilus DGCC7785
  Transformation rate, With peptide addition: 4.1 × 10^−5
S. thermophilus DGCC7879
  Transformation rate, With peptide addition: 8.6 × 10^−3

## PYFAGCL (fragment)
S. thermophilus CNRZ1066; [2]
  Transformation rate, With peptide addition: 3.69 × 10^−4
S. thermophilus CNRZ1066; 1 μM peptide, result in words
  Complementation of the transformation defect in CDM: complements the transformation defect
S. thermophilus LMD-9; [2]
  Transformation rate, With peptide addition: 3.10 × 10^−3
S. thermophilus LMD-9; 1 μM peptide in CDM versus no peptide
  Increase of natural competence upon extracellular peptide addition: 10 fold
